Measured values from patent US5852018A, “Pharmaceutical piperazine compounds” (Xenova Limited, priority 1994, dated 1998).
Several values for one entry are separate records, joined by “and”; a condition that tells them apart may be missing. Equal values may be shown once.

Assays:
MDR cells = settings: in vitro and in vivo; Cancer Res., 41, 1967-1972 (1981); cited from earlier work
AR 1.0 cells [1] = assay: Proliferation assay with and without fixed concentration of doxorubicin (sulphorhodamine B); format: cell-based, mouse; settings: four days
Excerpt: Compounds of formula A were examined for their ability to potentiate the toxicity of doxorubicin in AR 1.0 cells.

AR 1.0 cells [2] = assay: Drug accumulation assay (tritiated daunorubicin) in MDR resistant AR 1.0 cells; format: cell-based; settings: Mus musculus, DNR 2 μM; for IC50: 37° C., 1 hr; for Emax: 1 h, 100% = accumulation with 100 μM Verapamil, read-out: MAX accumulation (% 100 μm VRP)
Experimental: The EMT6 mouse mammary carcinoma cell line and the MDR resistant subline AR 1.0 were cultured in RPMI 1640 medium containing 10% foetal calf serum and 2 mM glutamine at 37° C. in 5% CO2 . Cells were passaged between 1 in 200 and 1 in 2000 in the case of the parental cell line and between 1 in 20 and 1 in 200 in the case of the MDR resistant subline, after trypsinisation (0.25% trypsin, 0.2 gl^-1, EDTA).
AR 1.0 cells were seeded into 96 well opaque culture plates (Canberra Packard). The assay medium contained a mixture of tritiated Daunorubicin (DNR), a cytotoxic agent, and unlabelled DNR (0.25μ Ci/ml; 2 μM). Compounds of formula A were serially diluted in assay medium over a range of concentrations from 100 nM to 100 μM. The cells were incubated at 37° C. for 1 hr before washing and counting of cell associated radioactivity. Each assay included a titration of the known resistance modifying agent Verapamil as positive control. Results were expressed as % maximum accumulation where 100% accumulation is that observed in the presence of 100 μM Verapamil.

AR 1.0 cells [3] = assay: Potentiation of doxorubicin toxicity (potentiation index) in AR 1.0 cells; format: cell-based, mouse; settings: four days
[4] = Mus musculus, 96 h, compound alone, read-out: COMPOUND TOXICITY (IC50)
[5] = cytotoxic agent 1.00 μg/ml, 5760 min, read-out: TOXICITY WITH CYTOTOXIC AGENT (IC 50)
[6] = cytotoxic agent 0.50 μg/ml, 5760 min, read-out: TOXICITY WITH CYTOTOXIC AGENT (IC 50)

Row | IC50 (AR 1.0 cells [2]) [µM] | Structure (SMILES) | sensitisation of MDR cells to Vinca alkaloids (MDR cells) | IC50 (AR 1.0 cells [1]; [4]) [µM] | IC50 (AR 1.0 cells [1]; [5]) [µM] | Emax (AR 1.0 cells [2]) [%] | Potentiation Index (AR 1.0 cells [3]; Conc Comp 5 μM) | Potentiation Index (AR 1.0 cells [3]; Conc Comp 3 μM) | IC50 (AR 1.0 cells [1]; [6]) [µM]
1 |  | COc1ccc(CCN(C)CCCC(C#N)(c2ccc(OC)c(OC)c2)C(C)C)cc1OC (stereo not shown) [Verapamil] | sensitise MDR cells to Vinca alkaloids in vitro and in vivo |  |  |  |  |  | 
2 | 9 | Cn1c(=O)/c(=C/c2ccccc2)nc(OCC2OCCO2)/c1=C/c1ccccc1 [Compound 1822, (3Z,6Z)-3,6-Dibenzylidene-1-methyl-2-oxo-1,2,3,6-tetrahydro-5-pyrazinyloxyacetaldehyde ethylene acetal] |  | 5 |  |  |  |  | 
3 | 30 | COC(=O)Cn1c(=O)/c(=C/c2ccc(OC)cc2)[nH]c(=O)/c1=C/c1ccccc1 [Compound 1490, Methyl (3Z,6Z)-6-benzylidene-3-(4-methoxybenzylidene)-2,5-dioxo-1-piperazinylacetate] |  | 30 | 2 | 63.6 |  |  | 
4 | 10 | COc1ccc(/C=c2/c(=O)[nH]/c(=C\c3ccccc3)c(=O)n2CC2CC2)cc1 [Compound 1454, (3Z,6Z)-3-Benzylidene-1-cyclopropylmethyl-6-(4-methoxybenzylidene)-2,5-piperazinedione] |  | 5 |  |  | 10 |  | 
5 | 40 | CCN(CC)C(=O)Cn1c(=O)/c(=C/c2ccc(OC)cc2)[nH]c(=O)/c1=C/c1ccccc1 [Compound 1527, N,N-Diethyl-(3Z,6Z)-6-benzylidene-3-(4-methoxybenzylidene)-2,5-dioxo-1-piperazinylacetamide] |  | 40 | 1.5 | 73.9 |  |  | 
6 | 30 | COc1ccc(/C=c2/c(=O)[nH]/c(=C\c3ccccc3)c(=O)n2CC(=O)N2CCCC2)cc1 [Compound 1521, N,N-Tetramethylene-(3Z,6Z)-3-benzylidene-6-(4-methoxybenzylidene)-2,5-dioxo-1-piperazinylacetamide] |  | 70 |  | 65.2 |  |  | 
7 | 15 | COc1ccc(/C=c2\[nH]c(=O)/c(=C/c3ccccc3)n(CC3CC3)c2=O)cc1 [Compound 1500] |  | 20 |  | 91.3 |  | 10 | 
8 | 9 | Cn1c(=O)/c(=C/c2ccccc2)n(CC2OCCO2)c(=O)/c1=C/c1ccccc1 [Compound 1823, (3Z,6Z)-3,6-Dibenzylidene-4-methyl-2,5-dioxo-1-piperazinylacetaldehydeethylene acetal] |  | 30 |  |  |  | 20 | 0.7
9 | 3 | Cn1c(=O)/c(=C/c2ccccc2)nc(OCCCN2C(=O)c3ccccc3C2=O)/c1=C/c1ccccc1 [Compound 1824, (3Z,6Z)-3,6-Dibenzylidene-1-methyl-5-(3-phthalimidopropoxy)-3,6-dihydro-2-pyrazinone] |  | 7 |  |  |  | 60 and 80 | 
10 | 10 | C=CCn1c(=O)/c(=C/c2ccccc2)n(C)c(=O)/c1=C/c1ccccc1 [Compound 1825, (3Z,6Z)-1-Allyl-3,6-dibenzylidene-4-methyl-2,5-piperazinedione] |  | 20 |  |  |  | 15 | 1.5
11 | 15 | Cn1c(=O)/c(=C/c2ccccc2)n(Cc2ccccc2)c(=O)/c1=C/c1ccccc1 [Compound 1779, (3Z,6Z)-1-Benzyl-3,6-dibenzylidene-4-methyl-2,5-piperazinedione] |  | 15 | 0.8 |  | 40 |  | 
12 | 12 | COc1ccc(/C=c2/c(=O)n(CC3CC3)/c(=C\c3ccccc3)c(=O)n2C)cc1 [Compound 1833] |  | 9 |  |  |  | 20 | 1

Row | Structure (SMILES) | IC50 (AR 1.0 cells [2]) [µM] | sensitisation of MDR cells to Vinca alkaloids (MDR cells) | IC50 (AR 1.0 cells [1]; [4]) [µM] | IC50 (AR 1.0 cells [1]; [5]) [µM] | Emax (AR 1.0 cells [2]) [%] | Potentiation Index (AR 1.0 cells [3]; Conc Comp 5 μM) | Potentiation Index (AR 1.0 cells [3]; Conc Comp 3 μM) | IC50 (AR 1.0 cells [1]; [6]) [µM]
13 | CC(=O)OCCOc1n/c(=C\c2ccccc2)c(=O)n(C)/c1=C\c1ccccc1 [Compound 1818, (3Z,6Z)-5-(2-Acetoxyethoxy)-3,6-dibenzylidene-1-methyl-3,6-dihydro-2-pyrazinone] | 7 |  | 1.5 |  |  |  |  | 0.8
